Test results reported in patent US10273239B2, “Spiro-lactam NMDA receptor modulators and uses thereof” (Aptinyx Inc., priority 2013, dated 2019).

Key:
[1] = biological target: T1, NMDA receptor (rat cortical membranes) (Rattus norvegicus, UniProt P35439); assay: [3H] MK-801 binding assay (potentiation of [3H]MK-801 binding)
T1 construct: well washed rat cortical membranes (200 μg); from tissue; host or cells: rat cerebral cortex membranes
Experimental: Assays were conducted as described in Moskal et al. (Moskal, J. R., Kuo, A. G., Weiss, C., Wood, P. L., O'Connor Hanson, A., Kelso, S., Harris, R. B., Disterhoft, J. F., 2005. GLYX-13: a monoclonal antibody-derived peptide that acts as an N-methyl-D-aspartate receptor modulator. Neuropharmacology. 49, 1077-87) The potentiation of [^3H]MK-801 binding (5 nM; 22.5 Ci/mmol) to well washed rat cortical membranes (200 μg) was measured under non-equilibrium conditions (15 min @ 25° C.) in the presence of increasing concentrations of test compounds and 50 μM glutamate. Zero levels were determined in the absence of any glycine ligand and in the presence of 30 μM 5,7 DCKA. Maximal stimulation was measured in the presence of 1 mM glycine, and 50 μM glutamate was present in all samples. The facilitation of [^3H]MK-801 binding by tests compounds was calculated by using a 3 parameter log agonist vs. response equation (Graph pad Prism, USA) and potency (EC50, expressed in pM) and maximal activity (% maximal stimulation) were calculated for the test compound.

LTP = assay: Unified Activity Data: LTP; settings: LTP Concentration 1 uM
[2] = Unified Activity Data: Porsolt; type: in vivo; settings: 3 mg/kg, IV, 1 hour post dose

SMILES	EC50 [1] [nM]	Unified Activity Data: LTP Augmentation (Percent) (LTP) [%]	Unified Activity Data: Porsolt Floating Time Inhibition (Percent) [2] [%]
C[C@@H](O)[C@H](NC(=O)OC(C)(C)C)C(=O)N1CCCC12CNC2=O (stereo in doubt) [Compound 4S-FNL-2, tert-butyl (3-hydroxy-1-oxo-1-(1-oxo-2,5-diazaspiro [3.4]octan-5-yl)butan-2-yl)carbamate]	0.0553	–	–
C[C@@H](O)[C@H](N)C(=O)N1CCCC12CNC2=O (stereo partly drawn) [Compound 4S-FNL-1, 5-((2S,3R)-2-amino-3-hydroxybutanoyl)-2,5-diazaspiro [3.4] octan-1-one]	–	80	70
